Source: patent US20260000692A1, “Substituted N-(Pyridin-2-yl)Acetamide Derivatives as CDK12/13 Inhibitors” (Aurigene Oncology Limited, priority 2022, published 2026)
Like-named read-outs stand apart in the source and are kept apart here.

Biological target: CDK12 (Homo sapiens, UniProt Q9NYV4)
Experiment: Biochemical assay for CDK12 (LANCE TR-FRET, IC50 determination)
Conditions: for IC50: CDK12, IC50 class; for inhibition at 10 µM: read-out: CDK12 % Inhibition @ 10 μM
Method in brief: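 30 nM CDK12 phosphorylated 100 nM ULight-4E-BP1 (Thr37/Thr46) peptide at 100 µM ATP, as printed, in HEPES pH 7.5 buffer with MgCl2 and DTT. Compound and enzyme were preincubated 60 min, then reacted 60 min at room temperature before stopping with EDTA and Eu anti-phospho antibody. TR-FRET 665/615 ratio gave sigmoidal IC50 fits.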

Sequence of CDK12 (Q9NYV4 whole entry): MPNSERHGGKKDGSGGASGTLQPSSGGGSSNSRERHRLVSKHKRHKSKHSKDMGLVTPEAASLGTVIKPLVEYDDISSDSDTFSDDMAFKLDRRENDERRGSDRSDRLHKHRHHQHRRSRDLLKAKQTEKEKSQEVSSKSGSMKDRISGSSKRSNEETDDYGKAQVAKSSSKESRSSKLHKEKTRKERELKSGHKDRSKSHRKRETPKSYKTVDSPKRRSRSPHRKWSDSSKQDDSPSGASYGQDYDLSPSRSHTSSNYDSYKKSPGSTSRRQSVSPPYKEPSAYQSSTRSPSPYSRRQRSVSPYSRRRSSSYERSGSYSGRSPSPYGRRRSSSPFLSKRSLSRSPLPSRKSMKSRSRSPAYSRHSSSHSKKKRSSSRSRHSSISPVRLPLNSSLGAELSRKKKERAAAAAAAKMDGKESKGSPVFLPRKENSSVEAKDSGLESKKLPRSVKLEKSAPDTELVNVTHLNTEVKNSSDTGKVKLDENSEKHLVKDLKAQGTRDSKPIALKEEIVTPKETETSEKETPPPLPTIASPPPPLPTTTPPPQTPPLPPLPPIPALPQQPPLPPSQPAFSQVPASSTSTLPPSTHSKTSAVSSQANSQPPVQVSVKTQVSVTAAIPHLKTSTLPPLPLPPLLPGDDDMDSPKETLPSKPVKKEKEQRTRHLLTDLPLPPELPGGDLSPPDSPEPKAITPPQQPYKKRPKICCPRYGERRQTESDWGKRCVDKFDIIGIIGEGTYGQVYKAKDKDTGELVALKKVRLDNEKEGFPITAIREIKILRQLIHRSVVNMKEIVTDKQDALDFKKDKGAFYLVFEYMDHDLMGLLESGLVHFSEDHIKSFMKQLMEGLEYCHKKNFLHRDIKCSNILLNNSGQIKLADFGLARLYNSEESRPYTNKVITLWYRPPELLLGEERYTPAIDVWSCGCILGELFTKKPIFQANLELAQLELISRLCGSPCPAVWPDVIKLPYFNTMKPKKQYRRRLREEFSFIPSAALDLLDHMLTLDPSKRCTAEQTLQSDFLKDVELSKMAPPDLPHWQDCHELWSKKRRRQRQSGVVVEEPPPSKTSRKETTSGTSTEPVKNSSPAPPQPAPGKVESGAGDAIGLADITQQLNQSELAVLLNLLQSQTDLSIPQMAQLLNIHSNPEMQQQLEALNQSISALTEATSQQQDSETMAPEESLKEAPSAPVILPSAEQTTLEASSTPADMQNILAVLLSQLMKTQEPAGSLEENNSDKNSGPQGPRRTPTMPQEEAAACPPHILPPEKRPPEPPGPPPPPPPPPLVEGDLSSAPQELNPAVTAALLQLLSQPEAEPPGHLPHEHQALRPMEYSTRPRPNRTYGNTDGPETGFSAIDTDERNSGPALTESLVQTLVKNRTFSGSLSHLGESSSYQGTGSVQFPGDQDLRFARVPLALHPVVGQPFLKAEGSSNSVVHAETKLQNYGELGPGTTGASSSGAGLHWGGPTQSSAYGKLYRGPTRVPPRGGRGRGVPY
Sequence of CDK12 (O75909 whole entry partner): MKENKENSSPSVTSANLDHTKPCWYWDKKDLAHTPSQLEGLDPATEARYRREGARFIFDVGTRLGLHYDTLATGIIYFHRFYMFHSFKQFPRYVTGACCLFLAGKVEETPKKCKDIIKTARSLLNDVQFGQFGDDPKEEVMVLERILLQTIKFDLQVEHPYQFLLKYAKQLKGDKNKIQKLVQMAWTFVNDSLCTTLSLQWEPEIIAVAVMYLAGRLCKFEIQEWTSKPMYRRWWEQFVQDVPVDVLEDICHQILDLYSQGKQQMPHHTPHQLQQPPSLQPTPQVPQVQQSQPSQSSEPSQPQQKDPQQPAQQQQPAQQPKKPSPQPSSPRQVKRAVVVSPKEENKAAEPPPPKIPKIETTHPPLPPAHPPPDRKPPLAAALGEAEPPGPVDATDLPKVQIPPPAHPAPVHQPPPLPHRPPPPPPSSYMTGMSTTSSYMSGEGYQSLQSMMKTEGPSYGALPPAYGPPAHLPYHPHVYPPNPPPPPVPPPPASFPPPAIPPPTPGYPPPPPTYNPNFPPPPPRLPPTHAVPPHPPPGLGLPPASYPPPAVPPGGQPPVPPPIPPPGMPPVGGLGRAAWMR

IC50 (read-out: IC50 μM (in range)) | inhibition at 10 µM (compound at 10 μM) | SMILES | IC50 (IC50 μM (in range)) | inhibition at 10 µM
0.01 to 0.1 µM | 87% | COc1cc(NC(=O)Cc2ccc(C3CCN(C#N)CC3C)nc2)ncc1Cl (stereo not shown) [Compound 60, N-(5-chloro-4-methoxypyridin-2-yl)-2-(6-(1-cyano-3-methylpiperidin-4-yl)pyridin-3-yl)acetamide] | – | –
< 0.01 µM | 89% | N#CN1CCC=C(c2ccc(CC(=O)Nc3cc(OC4CCOCC4)c(Cl)cn3)cn2)C1 [Compound 61, N-(5-chloro-4-((tetrahydro-2H-pyran-4-yl)oxy)pyridin-2-yl)-2-(1′-cyano-1′,2′,5′,6′-tetrahydro-[2,3′-bipyridin]-5-yl)acetamide] | – | –
< 0.01 µM | 92% | CC1CC(Oc2cc(NC(=O)Cc3ccc(C4=CCCN(C#N)C4)nc3)ncc2Cl)CCN1C (stereo not shown) [Compound 63, N-(5-chloro-4-((1,2-dimethylpiperidin-4-yl)oxy)pyridin-2-yl)-2-(1′-cyano-1′,2′,5′,6′-tetrahydro-[2,3′-bipyridin]-5-yl)acetamide] | – | –
< 0.01 µM | 87% | COc1cc(NC(=O)Cc2ccc(C3=CCN(C#N)C(C)C3)nc2)ncc1Cl (stereo not shown) [Compound 65, N-(5-chloro-4-methoxypyridin-2-yl)-2-(1′-cyano-2′-methyl-1′,2′,3′,6′-tetrahydro-[2,4′-bipyridin]-5-yl)acetamide] | – | –
< 0.01 µM | 93% | CN1CC2(CC(Oc3cc(NC(=O)Cc4ccc(C5=CCCN(C#N)C5)nc4)ncc3Cl)C2)C1 [Compound 69, N-(5-chloro-4-((2-methyl-2-azaspiro[3.3]heptan-6-yl)oxy)pyridin-2-yl)-2-(1′-cyano-1′,2′,5′,6′-tetrahydro-[2,3′-bipyridin]-5-yl)acetamide] | – | –
< 0.01 µM | 94% | COc1cc(NC(=O)Cc2ccc(C3=CCN(C#N)CC3C)nc2)ncc1Cl (stereo not shown) [Compound 70, N-(5-chloro-4-methoxypyridin-2-yl)-2-(1′-cyano-3′-methyl-1′,2′,3′,6′-tetrahydro-[2,4′-bipyridin]-5-yl)acetamide] | – | –
< 0.01 µM | 96% | COc1cc(NC(=O)Cc2ccc(C3=CC4CN(C#N)CC4C3)nc2)ncc1Cl (stereo not shown) [Compound 75, N-(5-chloro-4-methoxypyridin-2-yl)-2-(6-(2-cyano-1,2,3,3a,4,6a-hexahydrocyclopenta[c]pyrrol-5-yl)pyridin-3-yl)acetamide] | – | –
< 0.01 µM | 90% | COc1cc(NC(=O)Cc2ccc(C3CC4CN(C#N)CC4C3)nc2)ncc1Cl (stereo not shown) [Compound 76, N-(5-chloro-4-methoxypyridin-2-yl)-2-(6-(2-cyanooctahydrocyclopenta[c]pyrrol-5-yl)pyridin-3-yl)acetamide] | – | –
– | – | CN(C)C(=O)Oc1cc(NC(=O)Cc2ccc(C3=CCCN(C#N)C3)nc2)ncc1Cl [Compound 77, 5-chloro-2-(2-(1′-cyano-1′,2′,5′,6′-tetrahydro-[2,3′-bipyridin]-5-yl)acetamido)pyridin-4-yl dimethylcarbamate] | < 0.01 µM | 79%
0.01 to 0.1 µM | 87% | COc1cc(NC(=O)Cc2ccc(C3CCCN(C#N)C3)nc2)ncc1Cl (stereo not shown) [Compound 78, N-(5-chloro-4-methoxypyridin-2-yl)-2-(6-(1-cyanopiperidin-3-yl)pyridin-3-yl)acetamide] | – | –
< 0.01 µM | 87% | COc1cc(NC(=O)Cc2ccc(C3=CC4CCC3CN4C#N)nc2)ncc1Cl (stereo not shown) [Compound 81, N-(5-chloro-4-methoxypyridin-2-yl)-2-(6-(2-cyano-2-azabicyclo[2.2.2]oct-5-en-5-yl)pyridin-3-yl)acetamide] | – | –
0.01 to 0.1 µM | 87% | CNC(=O)C(C)Oc1cc(NC(=O)Cc2ccc(C3CCN(C#N)CC3)nc2)ncc1Cl (stereo not shown) [Compound 82, 2-((5-chloro-2-(2-(6-(1-cyanopiperidin-4-yl)pyridin-3-yl)acetamido)pyridin-4-yl)oxy)-N-methylpropanamide] | – | –
0.01 to 0.1 µM | 92% | CNC(=O)C(C)Oc1cc(NC(=O)Cc2ccc(C3CCCN(C#N)C3)nc2)ncc1Cl (stereo not shown) [Compound 85, 2-((5-chloro-2-(2-(6-(1-cyanopiperidin-3-yl)pyridin-3-yl)acetamido)pyridin-4-yl)oxy)-N-methylpropanamide] | – | –
0.01 to 0.1 µM | 90% | N#CN1CCCC(c2ccc(CC(=O)Nc3cc(O[C@@H]4CCOC4)c(Cl)cn3)cn2)C1 (stereo partly drawn) [Compound 92, N-(5-chloro-4-(((R)-tetrahydrofuran-3-yl)oxy)pyridin-2-yl)-2-(6-(1-cyanopiperidin-3-yl)pyridin-3-yl)acetamide] | – | –
0.01 to 0.1 µM | 90% | N#CN1CCCC(c2ccc(CC(=O)Nc3cc(O[C@H]4CCOC4)c(Cl)cn3)cn2)C1 (stereo partly drawn) [Compound 95, N-(5-chloro-4-(((S)-tetrahydrofuran-3-yl)oxy)pyridin-2-yl)-2-(6-(1-cyanopiperidin-3-yl)pyridin-3-yl)acetamide] | – | –
0.01 to 0.1 µM | 87% | N#CN1CCC(c2ccc(CC(=O)Nc3cc(O[C@@H]4CCOC4)c(Cl)cn3)cn2)CC1 [Compound 98, (R)-N-(5-chloro-4-((tetrahydrofuran-3-yl)oxy)pyridin-2-yl)-2-(6-(1-cyanopiperidin-4-yl)pyridin-3-yl)acetamide] | – | –
0.01 to 0.1 µM | 95% | N#CN1CCC(c2ccc(CC(=O)Nc3cc(O[C@H]4CCOC4)c(Cl)cn3)cn2)CC1 [Compound 99, (S)-N-(5-chloro-4-((tetrahydrofuran-3-yl)oxy)pyridin-2-yl)-2-(6-(1-cyanopiperidin-4-yl)pyridin-3-yl)acetamide] | – | –
– | – | CN(C)C(=O)Oc1cc(NC(=O)Cc2ccc(C3=CCN(C#N)CC3)nc2)ncc1Cl [Compound 100, 5-chloro-2-(2-(1′-cyano-1′,2′,3′,6′-tetrahydro-[2,4′-bipyridin]-5-yl)acetamido)pyridin-4-yl dimethylcarbamate] | 0.01 to 0.1 µM | 77%
– | – | CN(C)C(=O)Oc1cc(NC(=O)Cc2ccc(C3CCN(C#N)CC3)nc2)ncc1Cl [Compound 101, 5-chloro-2-(2-(6-(1-cyanopiperidin-4-yl)pyridin-3-yl)acetamido)pyridin-4-yl dimethylcarbamate] | > 0.1 µM | 86%
> 0.1 µM | 87% | N#CN1CCC=C(c2ccc(CC(=O)Nc3ccccn3)cn2)C1 [Compound 102, 2-(1′-cyano-1′,2′,5′,6′-tetrahydro-[2,3′-bipyridin]-5-yl)-N-(pyridin-2-yl)acetamide] | – | –
0.01 to 0.1 µM | 98% | N#CN1CCC=C(c2ccc(CC(=O)Nc3ccc(F)cn3)cn2)C1 [Compound 103, 2-(1′-cyano-1′,2′,5′,6′-tetrahydro-[2,3′-bipyridin]-5-yl)-N-(5-fluoropyridin-2-yl)acetamide] | – | –
0.01 to 0.1 µM | 79% | Cc1ccc(NC(=O)Cc2ccc(C3=CCCN(C#N)C3)nc2)nc1 [Compound 104, 2-(1′-cyano-1′,2′,5′,6′-tetrahydro-[2,3′-bipyridin]-5-yl)-N-(5-methylpyridin-2-yl)acetamide] | – | –
< 0.01 µM | 100% | N#CN1CCC=C(c2ccc(CC(=O)Nc3cc(Cl)c(Cl)cn3)cn2)C1 [Compound 105, 2-(1′-cyano-1′,2′,5′,6′-tetrahydro-[2,3′-bipyridin]-5-yl)-N-(4,5-dichloropyridin-2-yl)acetamide] | – | –
< 0.01 µM | 90% | N#CN1CCC=C(c2ccc(CC(=O)Nc3ccc(C4CC4)cn3)cn2)C1 [Compound 106, 2-(1′-cyano-1′,2′,5′,6′-tetrahydro-[2,3′-bipyridin]-5-yl)-N-(5-cyclopropylpyridin-2-yl)acetamide] | – | –
0.01 to 0.1 µM | 95% | CSc1ccc(NC(=O)Cc2ccc(C3=CCCN(C#N)C3)nc2)nc1 [Compound 107, 2-(1′-cyano-1′,2′,5′,6′-tetrahydro-[2,3′-bipyridin]-5-yl)-N-(5-(methylthio)pyridin-2-yl)acetamide] | – | –
0.01 to 0.1 µM | 85% | N#CN1CCC=C(c2ccc(CC(=O)Nc3cnc(Cl)cn3)cn2)C1 [Compound 108, N-(5-chloropyrazin-2-yl)-2-(1′-cyano-1′,2′,5′,6′-tetrahydro-[2,3′-bipyridin]-5-yl)acetamide] | – | –
0.01 to 0.1 µM | 89% | CN(C)c1cc(NC(=O)Cc2ccc(C3=CCCN(C#N)C3)nc2)ncc1Cl [Compound 109, N-(5-chloro-4-(dimethylamino)pyridin-2-yl)-2-(1′-cyano-1′,2′,5′,6′-tetrahydro-[2,3′-bipyridin]-5-yl)acetamide] | – | –
– | 57% | COc1cc(NC(=O)C(C)(C)c2ccc(C3=CCCN(C#N)C3)nc2)ncc1Cl [Compound 110, N-(5-chloro-4-methoxypyridin-2-yl)-2-(1′-cyano-1′,2′,5′,6′-tetrahydro-[2,3′-bipyridin]-5-yl)-2-methylpropanamide] | – | –

SMILES | IC50 (read-out: IC50 μM (in range)) | inhibition at 10 µM (compound at 10 μM) | IC50 (IC50 μM (in range)) | inhibition at 10 µM
CN1C2CCC1CC(Oc1cc(NC(=O)Cc3ccc(C4=CCCN(C#N)C4)nc3)ncc1Cl)C2 (stereo not shown) [Compound 62, N-(5-chloro-4-((8-methyl-8-azabicyclo[3.2.1]octan-3-yl)oxy)pyridin-2-yl)-2-(1′-cyano-1′,2′,5′,6′-tetrahydro-[2,3′-bipyridin]-5-yl)acetamide] | < 0.01 µM | 96% | – | –
COc1cc(NC(=O)Cc2ccc(C3=CC4CCC(C3)N4C#N)nc2)ncc1Cl (stereo not shown) [Compound 73, N-(5-chloro-4-methoxypyridin-2-yl)-2-(6-(8-cyano-8-azabicyclo[3.2.1]oct-2-en-3-yl)pyridin-3-yl)acetamide] | < 0.01 µM | 87% | – | –
COc1cc(NC(=O)Cc2ccc(C3CC4CCC(C3)N4C#N)nc2)ncc1Cl (stereo not shown) [Compound 74, N-(5-chloro-4-methoxypyridin-2-yl)-2-(6-(8-cyano-8-azabicyclo[3.2.1]octan-3-yl)pyridin-3-yl)acetamide] | < 0.01 µM | 100% | – | –
